Test results from the supplement of paper PMC10132981, “Formate overflow drives toxic folate trapping in MTHFD1 inhibited cancer cells” (Nature Metabolism, 2023).
± gives the standard deviation of the averaged measurements.

Key:
HCT116 = assay: EC50 for viability (resazurin, 96 h); details: RPMI+GlutaMAX (10% FBS, 1% P/S)
SW620 MTHFD2 -/- = assay: EC50 for viability (resazurin, 96 h); details: RPMI+GlutaMAX (5% dFBS, 1% P/S)
SW620 MTHFD2-/- = assay: EC50 for viability (resazurin, 96 h); details: RPMI+GlutaMAX (5% dFBS, 1% P/S)
SW620 WT = assay: EC50 for viability (resazurin, 96 h); details: RPMI+GlutaMAX (5% dFBS, 1% P/S)
SW620 [1] = assay: EC50 for viability (resazurin, 96 h)
SW620 [2] = assay: cell viability relative to lowest-dose well (resazurin, 96 h); higher = more viable; details: RPMI + 10% FBS
In short: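 HCT116 (500 cells/well) or SW620 (1,000 cells/well) cells were seeded in 50 µl RPMI with 10% FBS plus a metabolite supplement in 384-well plates. Compounds were dispensed from 10 mM DMSO stocks as dilution series, and plates were incubated 96 h at 37 °C, 5% CO2. Viability was read as resazurin (10 µg ml^−1) conversion to resorufin after 5 h, by fluorescence at 595 nm. Values are percent of the lowest-dose well, with independent replicate cultures. Viability was read by resazurin-to-resorufin conversion and normalised to the lowest-dose vehicle well (=100%).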

CN(Cc1cnc2nc(N)nc(N)c2n1)c1ccc(C(=O)N[C@@H](CCC(=O)O)C(=O)O)cc1 [methotrexate]
Details | EC50 for viability [nM]
HCT116, metabolite supplement: Hypoxanthine | 20.3
HCT116, metabolite supplement: Thymidine | 12.6
SW620 MTHFD2 -/-, metabolite supplement: Hypoxanthine | 16.7
SW620 MTHFD2 -/-, metabolite supplement: Sodium Formate | 10.6
SW620 MTHFD2 -/-, metabolite supplement: Thymidine | 2.67 ± 1.6
SW620 MTHFD2 -/-, metabolite supplement: Thymidine + Sodium Formate | 9.38
SW620 MTHFD2 -/-, metabolite supplement: Vehicle | 2.33 ± 2.8
SW620 MTHFD2-/-, metabolite supplement: Formate | 2.14
SW620 MTHFD2-/-, metabolite supplement: Hypoxanthine | 12
SW620 MTHFD2-/-, metabolite supplement: Hypoxanthine + Formate | 12.9
SW620 WT, metabolite supplement: Adenine | 31
SW620 WT, metabolite supplement: Adenosine | 34.5
SW620 WT, metabolite supplement: Guanosine | 19.8
SW620 WT, metabolite supplement: Hypoxanthine | 21.1 ± 0.86
SW620 WT, metabolite supplement: Hypoxanthine + AICAr 10 µM | 18.1
SW620 WT, metabolite supplement: Hypoxanthine + AICAr 30 µM | 21.9
SW620 WT, metabolite supplement: Hypoxanthine + AICAr 50 µM | 14.2
SW620 WT, metabolite supplement: Hypoxanthine + AICAr 100 µM | 11.3
SW620 WT, metabolite supplement: Sodium Formate | 6.74
SW620 WT, metabolite supplement: Thymidine | 8.47 ± 1.8
SW620 WT, metabolite supplement: Thymidine + Sodium Formate | 6.79
SW620 WT, metabolite supplement: Vehicle | 6.53 ± 0.56

Details | EC50 for viability [nM] | cell viability [%]
SW620 [1], HPLM (5% dFBS, 1% P/S), metabolite supplement: Vehicle | 27 | –
SW620 [1], RPMI+GlutaMAX (5% dFBS, 1% P/S), metabolite supplement: 50 µM Hypoxanthine | 21.8 ± 2.6 | –
SW620 [1], RPMI+GlutaMAX (5% dFBS, 1% P/S), metabolite supplement: Vehicle | 8.7 ± 2.5 | –
SW620 [1], RPMI+GlutaMAX (10% FBS, 1% P/S), metabolite supplement: Folic acid | 96.3 | –
SW620 [1], RPMI+GlutaMAX (10% FBS, 1% P/S), metabolite supplement: Folinic acid | 366 | –
SW620 [1], RPMI+GlutaMAX (10% FBS, 1% P/S), metabolite supplement: Hypoxanthine | 26.2 | –
SW620 [1], RPMI+GlutaMAX (10% FBS, 1% P/S), metabolite supplement: Thymidine | 12.4 ± 2.1 | –
SW620 [1], RPMI+GlutaMAX (10% FBS, 1% P/S), metabolite supplement: Thymidine + Folic acid | 81.8 | –
SW620 [1], RPMI+GlutaMAX (10% FBS, 1% P/S), metabolite supplement: Thymidine + Folinic acid | 388 | –
SW620 [1], RPMI+GlutaMAX (10% FBS, 1% P/S), metabolite supplement: Vehicle | 11.6 ± 4.3 | –
SW620 [2], 0.001 µM, metabolite supplement: 50uM thymidine | – | 96.3 ± 4
SW620 [2], 0.001 µM, metabolite supplement: 50uM thymidine + 250uM hypoxanthine | – | 95.7 ± 5.2
SW620 [2], 0.001 µM, metabolite supplement: 250uM hypoxanthine | – | 98.8 ± 6.7
SW620 [2], 0.001 µM, metabolite supplement: vehicle | – | 98 ± 2.8
SW620 [2], 0.00278 µM, metabolite supplement: 50uM thymidine | – | 95 ± 7.7
SW620 [2], 0.00278 µM, metabolite supplement: 50uM thymidine + 250uM hypoxanthine | – | 94.5 ± 5.3
SW620 [2], 0.00278 µM, metabolite supplement: 250uM hypoxanthine | – | 99.5 ± 3.2
SW620 [2], 0.00278 µM, metabolite supplement: vehicle | – | 96.3 ± 3.9
SW620 [2], 0.00774 µM, metabolite supplement: 50uM thymidine | – | 76.7 ± 16
SW620 [2], 0.00774 µM, metabolite supplement: 50uM thymidine + 250uM hypoxanthine | – | 93.4 ± 7.8
SW620 [2], 0.00774 µM, metabolite supplement: 250uM hypoxanthine | – | 96.2 ± 4.7
SW620 [2], 0.00774 µM, metabolite supplement: vehicle | – | 79.3 ± 6.6
SW620 [2], 0.0215 µM, metabolite supplement: 50uM thymidine | – | 42.2 ± 12
SW620 [2], 0.0215 µM, metabolite supplement: 50uM thymidine + 250uM hypoxanthine | – | 97.4 ± 6.6
SW620 [2], 0.0215 µM, metabolite supplement: 250uM hypoxanthine | – | 75.1 ± 2.8
SW620 [2], 0.0215 µM, metabolite supplement: vehicle | – | 60.4 ± 4.5
SW620 [2], 0.0599 µM, metabolite supplement: 50uM thymidine | – | 34.3 ± 11
SW620 [2], 0.0599 µM, metabolite supplement: 50uM thymidine + 250uM hypoxanthine | – | 90.2 ± 11
SW620 [2], 0.0599 µM, metabolite supplement: 250uM hypoxanthine | – | 32.8 ± 7.5
SW620 [2], 0.0599 µM, metabolite supplement: vehicle | – | 33.7 ± 6.8
SW620 [2], 0.167 µM, metabolite supplement: 50uM thymidine | – | 34.8 ± 9.7
SW620 [2], 0.167 µM, metabolite supplement: 50uM thymidine + 250uM hypoxanthine | – | 96.4 ± 8.1
SW620 [2], 0.167 µM, metabolite supplement: 250uM hypoxanthine | – | 28 ± 2.8
SW620 [2], 0.167 µM, metabolite supplement: vehicle | – | 26.9 ± 1.6
SW620 [2], 0.464 µM, metabolite supplement: 50uM thymidine | – | 33.1 ± 11
SW620 [2], 0.464 µM, metabolite supplement: 50uM thymidine + 250uM hypoxanthine | – | 94.7 ± 8.8
SW620 [2], 0.464 µM, metabolite supplement: 250uM hypoxanthine | – | 28.3 ± 3.3
SW620 [2], 0.464 µM, metabolite supplement: vehicle | – | 27 ± 1.2
SW620 [2], 1.29 µM, metabolite supplement: 50uM thymidine | – | 32.6 ± 10
SW620 [2], 1.29 µM, metabolite supplement: 50uM thymidine + 250uM hypoxanthine | – | 87.5 ± 18
SW620 [2], 1.29 µM, metabolite supplement: 250uM hypoxanthine | – | 28.4 ± 2.6
SW620 [2], 1.29 µM, metabolite supplement: vehicle | – | 26.4 ± 1.5
SW620 [2], 3.59 µM, metabolite supplement: 50uM thymidine | – | 30.9 ± 11
SW620 [2], 3.59 µM, metabolite supplement: 50uM thymidine + 250uM hypoxanthine | – | 83.6 ± 16
SW620 [2], 3.59 µM, metabolite supplement: 250uM hypoxanthine | – | 29.6 ± 0.61
SW620 [2], 3.59 µM, metabolite supplement: vehicle | – | 28.3 ± 1.5
SW620 [2], 10 µM, metabolite supplement: 50uM thymidine | – | 30.5 ± 11
SW620 [2], 10 µM, metabolite supplement: 50uM thymidine + 250uM hypoxanthine | – | 83.6 ± 16
SW620 [2], 10 µM, metabolite supplement: 250uM hypoxanthine | – | 29.5 ± 1.9
SW620 [2], 10 µM, metabolite supplement: vehicle | – | 29.3 ± 1.6
